Laboratory results as given in US20060069132A1, “Azolecarboxamide herbicides” (priority 2004, published 2006).

Assays:
bermudagrass = assay: Test C pre-/postemergence herbicide test; assay type: in vivo, Cynodon dactylon; conditions: for Bermudagrass plant response rating: Preemergence, 500 g ai/ha
Outline: (§1)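 Visual injury scores run from 0 (no effect) to 100 (complete control), assessed relative to untreated controls 12 to 14 days after treatment in the greenhouse. Chemicals were formulated in a non-phytotoxic solvent mixture with surfactant and applied to soil after planting or to emerged plants at the 1- to 4-leaf stage.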

woolly cupgrass = assay: Test C pre-/postemergence herbicide test; assay type: in vivo, Eriochloa villosa; conditions: for Cupgrass, Woolly plant response rating: Preemergence
Outline: as §1

giant foxtail = assay: Test C pre-/postemergence herbicide test; assay type: in vivo, Setaria faberi; conditions: for Foxtail, Giant plant response rating: Preemergence
Outline: as §1

large crabgrass = assay: Test A pre-/postemergence herbicide test; assay type: in vivo, Digitaria sanguinalis
Outline: (§2)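 Pre: seeded sandy loam, directed soil spray, compound in non-phytotoxic solvent + surfactant. Post: 1–2-leaf plants (2–10 cm), sprayed to runoff. Greenhouse ~10 d; visual injury vs untreated, 0–100 scale.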

goosegrass = assay: Test C pre-/postemergence herbicide test; assay type: in vivo, Eleusine indica; conditions: for Goosegrass plant response rating: Preemergence
Outline: as §1

common ragweed = assay: Test C pre-/postemergence herbicide test; assay type: in vivo, Ambrosia elatior; design: key to Plant response rating, Ragweed: 0 = no effect, 100 = complete control; conditions: for Ragweed plant response rating: Preemergence, scale 0 to 100, 0 no effect, 100 complete control
Outline: as §1

barnyardgrass = assay: Test A pre-/postemergence herbicide test; assay type: in vivo, Echinochloa crus-galli
Outline: as §2

redroot pigweed = assay: Test A pre-/postemergence herbicide test; assay type: in vivo, Amaranthus retroflexus
Outline: as §2

[1] = system: common (oilseed) sunflower; assay: Test C pre-/postemergence herbicide test; assay type: in vivo, Helianthus annuus; conditions: for Sunflower plant response rating: Preemergence, scale 0 to 100, 0 no effect, 100 complete control
Outline: as §1

[2] = 62 g ai/ha, preemergence, scale 0 to 100, 0 no effect, 100 complete control
[3] = 125 g ai/ha, scale 0 (no effect) to 100 (complete control), visual, 12 to 14 days, preemergence
[4] = 250 g ai/ha, scale 0-100, preemergence
[5] = scale 0 to 100, 0 no effect, 100 complete control
[6] = 62 g ai/ha, preemergence, scale 0 to 100
[7] = 500 g ai/ha, scale 0 to 100 (0 no effect, 100 complete control), visual, 12 to 14 days, preemergence
[8] = Postemergence, 500 g ai/ha, 0 to 100 scale, 0 no effect, 100 complete control
[9] = Postemergence, 2000 g ai/ha, 0 to 100 scale, 0 no effect, 100 complete control
[10] = Preemergence, 2000 g ai/ha, visual rating, 0 to 100 scale (0 no effect, 100 complete control)
[11] = preemergence, 500 g ai/ha, visual injury, 0 to 100 scale (0 no effect, 100 complete control)
[12] = 500 g ai/ha, scale 0 to 100, 0 no effect, 100 complete control
[13] = 31 g ai/ha, preemergence, scale 0 to 100
[14] = Postemergence, 125 g ai/ha, scale 0 to 100, 0 no effect, 100 complete control
[15] = postemergence, 62 g ai/ha, scale 0 to 100
[16] = Preemergence, 500 g ai/ha, visual rating, 0 to 100 scale (0 no effect, 100 complete control)
[17] = Preemergence, 2000 g ai/ha, 0 to 100 scale, 0 no effect, 100 complete control
[18] = 250 g ai/ha, scale 0 to 100 (0 no effect, 100 complete control), visual, 12 to 14 days, preemergence

SMILES: CCN(CC)C(=O)c1cccc(NC(=O)c2cc(C(C)(C)C)nn2C)n1 [Compound 314]
- Plant response rating, Bermudagrass (bermudagrass; [2]): 10
- Plant response rating, Bermudagrass (bermudagrass; [3]): 60
- Plant response rating, Bermudagrass (bermudagrass; [4]): 60
- Bermudagrass plant response rating (bermudagrass; [5]): 90
- Plant response rating, Cupgrass, Woolly (woolly cupgrass; [6]): 0
- Plant response rating, Cupgrass, Woolly (woolly cupgrass; [3]): 0
- Plant response rating, Cupgrass, Woolly (woolly cupgrass; [4]): 0
- Plant response rating, Cupgrass, Woolly (woolly cupgrass; [7]): 20
- Plant response rating, Foxtail, Giant (giant foxtail; [6]): 0
- Plant response rating, Foxtail, Giant (giant foxtail; [3]): 0
- Plant response rating, Foxtail, Giant (giant foxtail; [4]): 20
- Plant response rating, Foxtail, Giant (giant foxtail; [7]): 70
- Crabgrass, Large plant response rating (large crabgrass; [8]): 20
- Plant response rating, Crabgrass, Large (large crabgrass; [9]): 60
- Crabgrass, Large plant response rating (large crabgrass; [10]): 90
- Crabgrass, Large plant response rating (large crabgrass; [11]): 55
- Plant response rating, Goosegrass (goosegrass; [6]): 0
- Plant response rating, Goosegrass (goosegrass; [3]): 40
- Plant response rating, Goosegrass (goosegrass; [4]): 65
- Plant response rating, Goosegrass (goosegrass; [7]): 85
- Plant response rating, Ragweed (common ragweed; [6]): 0
- Plant response rating, Ragweed (common ragweed; [4]): 40
- Plant response rating, Ragweed (common ragweed; [7]): 60
- Barnyardgrass plant response rating (barnyardgrass; [8]): 35
- Plant response rating, Barnyardgrass (barnyardgrass; [9]): 75
- Barnyardgrass plant response rating (barnyardgrass; [10]): 90
- Barnyardgrass plant response rating (barnyardgrass; [11]): 50
- Pigweed plant response rating (redroot pigweed; [8]): 80
- Plant response rating, Pigweed (redroot pigweed; [9]): 100
- Pigweed plant response rating (redroot pigweed; [10]): 90
- Pigweed plant response rating (redroot pigweed; [11]): 80
- Plant response rating, Sunflower [1, 6]: 0
- Plant response rating, Sunflower [1, 4]: 20
- Plant response rating, Sunflower [1, 7]: 45

SMILES: CCc1nc(C(C)(C)C)sc1C(=O)Nc1cccc(C(=O)N(CC)CC)c1 [Compound 205]
- Plant response rating, Bermudagrass (bermudagrass; [2]): 90
- Plant response rating, Bermudagrass (bermudagrass; [3]): 100
- Plant response rating, Bermudagrass (bermudagrass; [4]): 100
- Bermudagrass plant response rating (bermudagrass; [5]): 100
- Plant response rating, Cupgrass, Woolly (woolly cupgrass; [6]): 0
- Plant response rating, Cupgrass, Woolly (woolly cupgrass; [3]): 10
- Plant response rating, Cupgrass, Woolly (woolly cupgrass; [4]): 10
- Cupgrass, Woolly plant response rating (woolly cupgrass; [12]): 50
- Plant response rating, Foxtail, Giant (giant foxtail; [6]): 0
- Plant response rating, Foxtail, Giant (giant foxtail; [3]): 10
- Plant response rating, Foxtail, Giant (giant foxtail; [4]): 80
- Foxtail, Giant plant response rating (giant foxtail; [12]): 95
- Crabgrass, Large plant response rating (large crabgrass; [8]): 10
- Plant response rating, Crabgrass, Large (large crabgrass; [9]): 20
- Crabgrass, Large plant response rating (large crabgrass; [10]): 95
- Crabgrass, Large plant response rating (large crabgrass; [11]): 80
- Plant response rating, Goosegrass (goosegrass; [6]): 50
- Plant response rating, Goosegrass (goosegrass; [3]): 70
- Plant response rating, Goosegrass (goosegrass; [4]): 80
- Goosegrass plant response rating (goosegrass; [12]): 95
- Plant response rating, Ragweed (common ragweed; [6]): 0
- Plant response rating, Ragweed (common ragweed; [3]): 20
- Plant response rating, Ragweed (common ragweed; [4]): 50
- Ragweed plant response rating (common ragweed; 500 g ai/ha): 100
- Barnyardgrass plant response rating (barnyardgrass; [8]): 45
- Plant response rating, Barnyardgrass (barnyardgrass; [9]): 65
- Barnyardgrass plant response rating (barnyardgrass; [10]): 90
- Barnyardgrass plant response rating (barnyardgrass; [11]): 80
- Pigweed plant response rating (redroot pigweed; [8]): 50
- Plant response rating, Pigweed (redroot pigweed; [9]): 65
- Pigweed plant response rating (redroot pigweed; [10]): 100
- Pigweed plant response rating (redroot pigweed; [11]): 100
- Plant response rating, Sunflower [1, 6]: 0
- Plant response rating, Sunflower [1, 3]: 0
- Plant response rating, Sunflower [1, 4]: 0
- Sunflower plant response rating ([1]; 500 g ai/ha): 0

SMILES: CCNC(=O)c1cccc(NC(=O)c2cc(C(C)(C)C)nn2CCF)c1 [Compound 35]
- Plant response rating, Bermudagrass (bermudagrass; 16 g ai/ha, scale 0 to 100, 0 no effect, 100 complete control, last section of Table C (species set of preemergence test)): 0
- Plant response rating, Bermudagrass (bermudagrass; [13]): 30
- Plant response rating (0 = no effect, 100 = complete control), Bermudagrass (bermudagrass; 62 g ai/ha, preemergence): 90
- Plant response rating, Bermudagrass (bermudagrass; [3]): 100
- Plant response rating, Bermudagrass (bermudagrass; [14]): 20
- Plant response rating, Bermudagrass (bermudagrass; postemergence, 16 g ai/ha, scale 0 to 100): 0
- Plant response rating, Bermudagrass (bermudagrass; [15]): 0
- Plant response rating, Cupgrass, Woolly (woolly cupgrass; [13]): 10
- Plant response rating (0 = no effect, 100 = complete control), Cupgrass, Woolly (woolly cupgrass; 62 g ai/ha, preemergence): 10
- Plant response rating, Cupgrass, Woolly (woolly cupgrass; [3]): 20
- Plant response rating, Cupgrass, Woolly (woolly cupgrass; [14]): 60
- Plant response rating, Cupgrass, Woolly (woolly cupgrass; [15]): 40
- Plant response rating, Foxtail, Giant (giant foxtail; [13]): 0
- Plant response rating (0 = no effect, 100 = complete control), Foxtail, Giant (giant foxtail; 62 g ai/ha, preemergence): 20
- Plant response rating, Foxtail, Giant (giant foxtail; [3]): 30
- Plant response rating, Foxtail, Giant (giant foxtail; [14]): 40
- Plant response rating, Foxtail, Giant (giant foxtail; [15]): 40
- Plant response rating, Crabgrass, Large (large crabgrass; [8]): 55
- Plant response rating, Crabgrass, Large (large crabgrass; [9]): 60
- Crabgrass, Large plant response rating (large crabgrass; [16]): 95
- Crabgrass, Large plant response rating (large crabgrass; [17]): 100
- Plant response rating, Goosegrass (goosegrass; [13]): 20
- Plant response rating (0 = no effect, 100 = complete control), Goosegrass (goosegrass; 62 g ai/ha, preemergence): 30
- Plant response rating, Goosegrass (goosegrass; [3]): 70
- Plant response rating, Goosegrass (goosegrass; [14]): 50
- Plant response rating, Goosegrass (goosegrass; [15]): 40
- Plant response rating, Ragweed (common ragweed; [13]): 0
- Plant response rating (0 = no effect, 100 = complete control), Ragweed (common ragweed; 62 g ai/ha, preemergence): 10
- Plant response rating, Ragweed (common ragweed; [3]): 80
- Plant response rating, Ragweed (common ragweed; postemergence, 125 g ai/ha, scale 0 to 100): 50
- Plant response rating, Ragweed (common ragweed; [15]): 50
- Plant response rating, Barnyardgrass (barnyardgrass; [8]): 70
- Plant response rating, Barnyardgrass (barnyardgrass; [9]): 85
- Barnyardgrass plant response rating (barnyardgrass; [16]): 70
- Barnyardgrass plant response rating (barnyardgrass; [17]): 90
- Plant response rating, Pigweed (redroot pigweed; [8]): 85
- Plant response rating, Pigweed (redroot pigweed; [9]): 95
- Pigweed plant response rating (redroot pigweed; [16]): 100
- Pigweed plant response rating (redroot pigweed; [17]): 100
- Plant response rating, Sunflower [1, 13]: 10
- Plant response rating (0 = no effect, 100 = complete control), Sunflower ([1]; 62 g ai/ha, preemergence): 10
- Plant response rating, Sunflower [1, 3]: 10

SMILES: CCN(CC)C(=O)c1ccnc(NC(=O)c2cc(C(C)(C)C)nn2CC)c1 [Compound 153]
- Plant response rating, Bermudagrass (bermudagrass; [2]): 70
- Plant response rating, Bermudagrass (bermudagrass; [3]): 95
- Plant response rating, Bermudagrass (bermudagrass; [18]): 95
- Bermudagrass plant response rating (bermudagrass; [5]): 100
- Plant response rating, Cupgrass, Woolly (woolly cupgrass; [6]): 0
- Plant response rating, Cupgrass, Woolly (woolly cupgrass; [3]): 0
- Plant response rating, Cupgrass, Woolly (woolly cupgrass; [18]): 0
- Cupgrass, Woolly plant response rating (woolly cupgrass; [12]): 60
- Plant response rating, Foxtail, Giant (giant foxtail; [6]): 0
- Plant response rating, Foxtail, Giant (giant foxtail; [3]): 0
- Plant response rating, Foxtail, Giant (giant foxtail; [18]): 0
- Foxtail, Giant plant response rating (giant foxtail; [12]): 0
- Crabgrass, Large plant response rating (large crabgrass; [8]): 10
- Plant response rating, Crabgrass, Large (large crabgrass; [9]): 20
- Crabgrass, Large plant response rating (large crabgrass; [16]): 25
- Crabgrass, Large plant response rating (large crabgrass; [10]): 25
- Plant response rating, Goosegrass (goosegrass; [6]): 55
- Plant response rating, Goosegrass (goosegrass; [3]): 75
- Goosegrass plant response rating (goosegrass; [12]): 95
- Plant response rating, Ragweed (common ragweed; [6]): 0
- Plant response rating, Ragweed (common ragweed; [3]): 0
- Ragweed plant response rating (common ragweed; 500 g ai/ha): 100
- Barnyardgrass plant response rating (barnyardgrass; [8]): 75
- Plant response rating, Barnyardgrass (barnyardgrass; [9]): 100
- Barnyardgrass plant response rating (barnyardgrass; [16]): 80
- Barnyardgrass plant response rating (barnyardgrass; [10]): 90
- Pigweed plant response rating (redroot pigweed; [8]): 95
- Plant response rating, Pigweed (redroot pigweed; [9]): 100
- Pigweed plant response rating (redroot pigweed; [10]): 100
- Pigweed plant response rating (redroot pigweed; [11]): 100
- Plant response rating, Sunflower [1, 6]: 0
- Plant response rating, Sunflower [1, 3]: 0
- Sunflower plant response rating ([1]; 500 g ai/ha): 0
